Source: ChEMBL document CHEMBL1201862, “PubChem BioAssay data set” (2004)
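The compound was tested at five concentrations on cells cultured in 96-well plates, with a 48-hour exposure period. Here, GI50 denotes the concentration required for 50% inhibition of growth.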 Active and inactive are the calls of the source. Rule as the data show it: active = GI50 up to about 1.1 µM and inactive = higher.

Columns and labels:
Assay in all cases: NCI-60 cell line screen, 48 h
[1] = system: IGROV-1
[2] = system: UACC-62
[3] = system: OVCAR-5
[4] = system: NCI/ADR-RES
[5] = system: U-251
[6] = system: T47D
[7] = system: EKVX
[8] = system: OVCAR-3
[9] = system: SW-620
[10] = system: OVCAR-8
[11] = system: UACC-257
[12] = system: LOX IMVI
[13] = system: CCRF-CEM
[14] = system: SN12C
[15] = system: SF-295
[16] = system: TK-10
[17] = system: OVCAR-4
[18] = system: HCT-116
[19] = system: K562
[20] = system: HL-60

Measured: GI50

Cn1c(=O)c2nc(CCCCC(=O)O)[nH]c2n(C)c1=O
inactive: [1] 61.7 µM | [2] > 100 µM | [3] > 100 µM | [4] > 100 µM | [5] > 100 µM | [6] > 100 µM | [7] > 100 µM | [8] > 100 µM | [9] > 100 µM | [10] > 100 µM | [11] > 100 µM | [12] > 100 µM | [13] > 100 µM | [14] > 100 µM | [15] > 100 µM | [16] > 100 µM | [17] > 100 µM | [18] > 100 µM

CCN(CC)c1nc(N(C)C)c2ccccc2n1
inactive: [1] 37 µM | [2] 14.9 µM | [3] 25.5 µM | [4] 22.5 µM | [19] 10.6 µM | [5] 28.4 µM | [6] 22.9 µM | [7] 10.3 µM | [9] 32.1 µM | [10] 31 µM | [11] 26.7 µM | [12] 30.1 µM | [20] 41.1 µM | [14] 20.9 µM | [15] 33.1 µM | [16] 44.7 µM | [17] 54.1 µM | [18] 10.8 µM

C/C(=C\CBr)CCC(Br)C(C)(C)Br (stereo unspecified)
inactive: [1] > 100 µM | [2] > 100 µM | [3] > 100 µM | [4] > 100 µM | [19] > 100 µM | [5] > 100 µM | [6] > 100 µM | [7] > 100 µM | [8] > 100 µM | [9] > 100 µM | [10] > 100 µM | [11] > 100 µM | [20] > 100 µM | [13] > 100 µM | [14] > 100 µM | [15] > 100 µM | [16] > 100 µM | [17] > 100 µM | [18] > 100 µM

COC(=O)[C@@H]1C[C@H]2[C@H](c3ccccc3Br)[C@@H](OC(C)=O)[C@@H](OCc3ccccc3)ON2O1
inactive: [1] 21.9 µM | [2] > 100 µM | [3] > 100 µM | [4] > 100 µM | [19] > 100 µM | [5] > 100 µM | [6] > 100 µM | [7] > 100 µM | [8] 19.6 µM | [9] > 100 µM | [10] > 100 µM | [11] > 100 µM | [12] > 100 µM | [13] 49.4 µM | [14] > 100 µM | [15] > 100 µM | [16] > 100 µM | [17] > 100 µM | [18] > 100 µM

C[C@H](CCCOS(C)(=O)=O)[C@H]1CC[C@H]2[C@@H]3CC[C@@H]4C[C@H](OS(C)(=O)=O)CC[C@]4(C)[C@H]3CC[C@]12C
inactive: [1] 30.1 µM | [2] 22.8 µM | [3] 39.3 µM | [4] 26.7 µM | [19] > 100 µM | [5] 15.9 µM | [6] 24.8 µM | [7] 28.2 µM | [8] 21.4 µM | [9] 56 µM | [10] 14.5 µM | [11] 46.7 µM | [12] 31.7 µM | [13] > 100 µM | [14] 16.7 µM | [15] 37.5 µM | [16] 15.7 µM | [17] 27.9 µM | [18] 29.5 µM

COC(=O)C(I(OS(=O)(=O)c1ccc(C)cc1)c1ccccc1)=P(c1ccccc1)(c1ccccc1)c1ccccc1
inactive: [1] 17.1 µM | [2] 18.7 µM | [3] 28.6 µM | [4] 64 µM | [19] 12.7 µM | [5] 20.7 µM | [6] 15.9 µM | [7] 23.7 µM | [8] 16.4 µM | [10] 21.2 µM | [11] 17.9 µM | [20] 15.1 µM | [13] 10.3 µM | [14] 43.2 µM | [15] 30.1 µM | [16] 23.6 µM | [17] 13.7 µM | [18] 16.3 µM

CC(=O)Nc1oc(C)c(C)c1S(=O)(=O)c1ccc(Cl)cc1
inactive: [1] 70 µM | [2] 42 µM | [3] > 100 µM | [4] 36 µM | [19] 77.1 µM | [5] 92 µM | [6] 52.7 µM | [7] 39.4 µM | [8] 27.5 µM | [9] > 100 µM | [10] 45.7 µM | [11] 41 µM | [20] 97.7 µM | [13] 79.8 µM | [15] 44.6 µM | [16] 60.5 µM | [17] 39.1 µM | [18] 55 µM

COC(=O)[C@@H]1Cc2ccc(OC)c(c2)OCCC(=O)N1
inactive: [1] 3.14 µM | [2] > 100 µM | [3] > 100 µM | [4] > 100 µM | [19] > 100 µM | [5] > 100 µM | [6] > 100 µM | [7] > 100 µM | [8] > 100 µM | [9] > 100 µM | [10] > 100 µM | [11] > 100 µM | [13] > 100 µM | [15] > 100 µM | [16] > 100 µM | [17] > 100 µM | [18] > 100 µM
